The test system of assay [1] is bladder cancer cell lines TCC-SUP and J82. Description: End-point chemosensitivity assay, tetraarylporphyrin platinum derivatives, dark and irradiated (600–730 nm). Type of assay: cell-based, human. The note with it: 1 μM concentration; tetraarylporphyrin-platinum series. The text has this: (§1) Data of the cytotoxic effect was obtained, for instance, on the human tumor cell lines TCC-SUP and J82. The effect of the compounds was investigated in the dark and under irradiation with light at a wavelength of 600–730 nm. Selected compounds are clearly more activ cytotoxically under irradiation. There is a synergism between the cytotoxic effect of the platinum component and the photodynamic principle.
(§2) To determine the antiproliferative activity of the new porphyrin ligands and the corresponding platinum complexes with different amine non-leaving groups two bladder cancer cell lines TCC-SUP and J82 were selected as in vitro models.
(§3) To discriminate between the cytotoxic and phototoxic effects all experiments were carried out in duplicate. The cells were seeded into microplates and the test compounds were added after 48 h. One batch of the microplates was kept in the dark until the end of the experiment, whereas the other microplates were irradiated 48 h after addition of the substances for 10 min with a light dose of 24 J·cm^−2, before the plates were reincubated in the dark.
(§4) End-Point Chemosensitivity Assay.
Tetraarylporphyrin Platinum Derivatives Type.

The test system of the next assay is TCC-SUP cells. Description: End-point chemosensitivity assay, hematoporphyrin platinum derivatives, dark and irradiated (600–730 nm). The assay is classed as cell-based, human. The note with it: 1 μM concentration; hematoporphyrin-platinum series; bladder cancer cells TCC-SUP.
From the text: as §1, §2, §3, §4
Hematoporphyrin Platinum Derivatives Type.

Take “(+)-trans-1,2-Diaminocyclohexane[2-(4-{10,15,20-tris[4-(1,4,7,10-tetraoxaundecyl)phenyl]porphyrin-5-yl}phenoxy)malonato]platinum(II) [compound 29]”: in assay [1], the T/Ccorr. was approximately 57%.
`N.N.[Cl][Pt][Cl]` [cisplatin]: the T/Ccorr. entry in the assay on TCC-SUP cells is “approximately 2%”.

The values above are taken from patent US7087214B2, “Water-soluble porphyrin platinum compounds with high tumor selectivity and their use for the treatment of benign and malignant tumor diseases” (Zentaris GmbH, priority 2002, dated 2006).
